Assays:
A2780 cells [1] = test: Cell viability with N-acetylcysteine (MTT), A2780; assay type: cell-based, human; conditions: A2780, NAC 5 mM 30 min before complexes at IC50
Method: Cell viability with N ‐acetylcysteine: Cells were seeded in 96‐well plates at a concentration of 7.5×10^3 cells per well and the plates were incubated for 24 h at 37 °C and a 5 % CO2 humidified atmosphere prior to drug exposure. Complexes were dissolved in either DMSO or PBS to provide stock solutions which were further diluted with media to provide a range of final concentrations. Solution of N‐acetylcysteine (NAC) in media was also prepared. […] Cells were incubated for 24 h at 37 °C and a 5 % CO2 humidified atmosphere. 3‐(4,5‐dimethylthiazol‐2‐yl)‐2,5‐diphenyltetrazolium bromide (MTT) (20 μL, 2.5 mg/mL) was added to each well and plates were incubated for 2 h. All solutions were then removed and 100 μL of DMSO was added to each well in order to dissolve the purple formazan crystals. A Thermo Scientific Multiskan EX microplate photometer was used to measure the absorbance in each well at 570 nm. Cell survival was determined as the absorbance of treated cells divided by the absorbance of controls and expressed as a percentage.

[2] = test system: H460 non-small-cell lung cancer cells; test: 24-hour MTT chemosensitivity assay with 72-hour recovery, H460; assay type: cell-based; conditions: for IC50: 24 h exposure, 72 h recovery, MTT, read-out: IC50 values ±SD, H460; for Selectivity index (SI), H460: mean IC50 PNT2 / mean IC50 H460
Method: Chemosensitivity studies were undertaken using a 24‐hour MTT assay, with a 72‐hour recovery period. The IC50 values were determined against ovarian A2780 (cisplatin‐sensitive) and A2780cisR (cisplatin‐resistant) cancer cell lines, non‐small‐cell lung H460 cancer cell line, and normal prostate PNT2 cell line, exposed to each of compounds 4–8, cisplatin or the phosphine ligands (Table 1 and S4, Figures S29–S31). […] This is unusual but can be related to solubility issues not visible for the naked eye and thus hindering its activity in cells. […] When tested on their own, the phosphine ligands are not active below 100 μM for all four cell lines. […] This therefore prevents comparison with the well‐known RAPTA family, and more especially with RAPTA−C which bears a PTA ligand and a p‐cym ligand, making this complex relatively similar in terms of geometry with complex 4.[21] […] This confirms the interest of the sulfur coordinating atom in terms of cytotoxicity for organoruthenium complexes.[23]
Chemosensitivity assay: In vitro chemosensitivity tests were performed against A2780, A2780cisR, PNT2 and H460 cells. Cells were routinely maintained as monolayer cultures in RPMI 1640 medium supplemented with 10 % foetal calf serum, penicillin (100 I.U./mL) and streptomycin (100 μg/mL), sodium pyruvate (1 mM) and L‐glutamine (2 mM). For chemosensitivity studies, cells were seeded in 96‐well plates at a concentration of 7.5×10^3 cells per well and the plates were incubated for 24 h at 37 °C and a 5 % CO2 humidified atmosphere prior to drug exposure.
Complexes were dissolved in either DMSO (complexes 4, 5, and 8) or PBS (complexes 6 and 7) to provide stock solutions which were further diluted with media to provide a range of final concentrations. Drug‐media solutions were added to cells (the final concentration of DMSO was less than 1 % (v/v) in all cases) and incubated for 24 h at 37 °C and a 5 % CO2 humidified atmosphere. The drug‐media solution was removed from the wells and the cells were washed with PBS (100 μL, twice) and 200 μL of complete fresh media were added to each well. The plates were further incubated for 72 h at 37 °C and a 5 % CO2 humidified atmosphere to allow for a period of recovery. 3‐(4,5‐dimethylthiazol‐2‐yl)‐2,5‐diphenyltetrazolium bromide (MTT) (40 μL, 2.5 mg/mL) was added to each well and plates were incubated for 2 h. All solutions were then removed and 100 μL of DMSO was added to each well in order to dissolve the purple formazan crystals. A Thermo Scientific Multiskan EX microplate photometer was used to measure the absorbance in each well at 570 nm. Cell survival was determined as the absorbance of treated cells divided by the absorbance of controls and expressed as a percentage. The IC50 values were determined from plots of % survival against drug concentration. Each experiment was repeated in triplicates of triplicates and a mean value was obtained and stated as IC50 (μM) ± SD. Untreated cells were used as a negative control, and cells treated with cisplatin were used as a positive control.

A2780 cells [3] = test: FITC annexin-V / PI apoptosis assay by flow cytometry; assay type: cell-based, human; conditions: A2780, 24 h, complexes 2×IC50, doxorubicin 0.5 µM
From the text: Annexin V‐FITC and propidium iodide (PI) have been used to distinguish between viable cells (Q1‐LL), early apoptotic cells (Q1‐LR), late apoptotic cells (Q1‐UR), and necrotic cells (Q1‐UL). […] Both complexes 6 and 8 induce apoptosis of A2780 cells and treatment with the complexes results in 99.6 % and 95.4 % of the cells in late apoptosis, respectively.
Figure 9 Flow cytometry analysis of A2780 cells exposed to complexes 6 or 8 at twice the IC50 concentration compared to a negative control. FITC reads annexin fluorescence and PE reads propidium iodide. Abbreviations: Q1‐UL=non‐viable cells; Q1‐UR=late‐stage apoptotic cells; Q1‐LR=early‐stage apoptotic cells and Q1‐LL=healthy cells.
FITC annexin‐V apoptosis assay: Flow cytometry analysis of apoptotic populations was carried out using the FITC Annexin V Apoptosis Detection Kit with PI (BioLegend®) according to manufacturer's instructions. Briefly, A2780 cells were seeded in 6‐well plates at a concentration of 1.0×10^6 cells per well and the plates were incubated for 24 h at 37 °C and a 5 % CO2 humidified atmosphere. […] Cells were then harvested using trypsin (without EDTA) and stained with PI/Annexin V‐FITC. After staining in the dark for 15 min at room temperature, cell pellets were analysed in a BD Accuri C6 Plus System flow cytometer and data was analysed using the BD Accuri C6 Plus software. These experiments were carried out in duplicate of triplicates in independent experiments; although only selected dot plots are shown, full numerical data and statistical analysis can be found in the Supporting Information.

[4] = Combined results, Average of two experiments

Compound: Cc1ccc(C(C)C)cc1.N#CC1=C(C#N)[S][Ru-]([P+](c2ccccc2)(c2ccccc2)c2ccccc2)[S]1 [Complex 8, (η^6‐p‐cymene)(PPh3)Ru(Mnt)]
- Cell viability after pre-treatment with NAC (A2780 cells [1]): increase of the cell viability
- IC50 [2]: 5.7 ± 0.8 µM
- Selectivity index (SI), H460 [2]: 0.42
- Early apoptosis (Q1-LR) (A2780 cells [3]; [4]): 2.5%
- Late apoptosis (Q1-UR) (A2780 cells [3]; [4]): 94.4%
- Necrosis (Q1-UL) (A2780 cells [3]; [4]): 0.5%
- Viable cells (Q1-LL) (A2780 cells [3]; [4]): 2.6%
- Early apoptosis (Q1-LR) (A2780 cells [3]; Experiment 1, Average): 2.6%
- Late apoptosis (Q1-UR) (A2780 cells [3]; Experiment 1, Average): 94.3%
- Necrosis (Q1-UL) (A2780 cells [3]; Experiment 1, Average): 0.4%
- Viable cells (Q1-LL) (A2780 cells [3]; Experiment 1, Average): 2.7%
- Early apoptosis (Q1-LR) (A2780 cells [3]; Experiment 1, Rep 1): 2.6%
- Late apoptosis (Q1-UR) (A2780 cells [3]; Experiment 1, Rep 1): 95.4%
- Necrosis (Q1-UL) (A2780 cells [3]; Experiment 1, Rep 1): 0.3%
- Viable cells (Q1-LL) (A2780 cells [3]; Experiment 1, Rep 1): 1.7%
- Early apoptosis (Q1-LR) (A2780 cells [3]; Experiment 1, Rep 2): 2.2%
- Late apoptosis (Q1-UR) (A2780 cells [3]; Experiment 1, Rep 2): 94.5%
- Necrosis (Q1-UL) (A2780 cells [3]; Experiment 1, Rep 2): 0.4%
- Viable cells (Q1-LL) (A2780 cells [3]; Experiment 1, Rep 2): 2.8%
- Early apoptosis (Q1-LR) (A2780 cells [3]; Experiment 1, Rep 3): 3.0%
- Late apoptosis (Q1-UR) (A2780 cells [3]; Experiment 1, Rep 3): 93.0%
- Necrosis (Q1-UL) (A2780 cells [3]; Experiment 1, Rep 3): 0.6%
- Viable cells (Q1-LL) (A2780 cells [3]; Experiment 1, Rep 3): 3.5%
- Early apoptosis (Q1-LR) (A2780 cells [3]; Experiment 2, Average): 2.4%
- Late apoptosis (Q1-UR) (A2780 cells [3]; Experiment 2, Average): 94.5%
- Necrosis (Q1-UL) (A2780 cells [3]; Experiment 2, Average): 0.6%
- Viable cells (Q1-LL) (A2780 cells [3]; Experiment 2, Average): 2.5%
- Early apoptosis (Q1-LR) (A2780 cells [3]; Experiment 2, Rep 1): 2.0%
- Late apoptosis (Q1-UR) (A2780 cells [3]; Experiment 2, Rep 1): 95.1%
- Necrosis (Q1-UL) (A2780 cells [3]; Experiment 2, Rep 1): 0.6%
- Viable cells (Q1-LL) (A2780 cells [3]; Experiment 2, Rep 1): 2.3%
- Early apoptosis (Q1-LR) (A2780 cells [3]; Experiment 2, Rep 2): 2.3%
- Late apoptosis (Q1-UR) (A2780 cells [3]; Experiment 2, Rep 2): 94.2%
- Necrosis (Q1-UL) (A2780 cells [3]; Experiment 2, Rep 2): 0.8%
- Viable cells (Q1-LL) (A2780 cells [3]; Experiment 2, Rep 2): 2.7%
- Early apoptosis (Q1-LR) (A2780 cells [3]; Experiment 2, Rep 3): 2.9%
- Late apoptosis (Q1-UR) (A2780 cells [3]; Experiment 2, Rep 3): 94.1%
- Necrosis (Q1-UL) (A2780 cells [3]; Experiment 2, Rep 3): 0.5%
- Viable cells (Q1-LL) (A2780 cells [3]; Experiment 2, Rep 3): 2.5%

Compound: (η^6‐p‐cymene)(TPPTS)Ru(Mnt) [Complex 6]
- Cell viability after pre-treatment with NAC (A2780 cells [1]): increase of the cell viability
- IC50 [2]: 2 ± 0.2 µM
- Selectivity index (SI), H460 [2]: 0.80
- Early apoptosis (Q1-LR) (A2780 cells [3]; [4]): 0.1%
- Late apoptosis (Q1-UR) (A2780 cells [3]; [4]): 99.8%
- Necrosis (Q1-UL) (A2780 cells [3]; [4]): 0.0%
- Viable cells (Q1-LL) (A2780 cells [3]; [4]): 0.2%
- Early apoptosis (Q1-LR) (A2780 cells [3]; Experiment 1, Average): 0.1%
- Late apoptosis (Q1-UR) (A2780 cells [3]; Experiment 1, Average): 99.6%
- Necrosis (Q1-UL) (A2780 cells [3]; Experiment 1, Average): 0.0%
- Viable cells (Q1-LL) (A2780 cells [3]; Experiment 1, Average): 0.2%
- Early apoptosis (Q1-LR) (A2780 cells [3]; Experiment 1, Rep 1): 0.1%
- Late apoptosis (Q1-UR) (A2780 cells [3]; Experiment 1, Rep 1): 99.6%
- Necrosis (Q1-UL) (A2780 cells [3]; Experiment 1, Rep 1): 0.0%
- Viable cells (Q1-LL) (A2780 cells [3]; Experiment 1, Rep 1): 0.2%
- Early apoptosis (Q1-LR) (A2780 cells [3]; Experiment 1, Rep 2): 0.1%
- Late apoptosis (Q1-UR) (A2780 cells [3]; Experiment 1, Rep 2): 99.6%
- Necrosis (Q1-UL) (A2780 cells [3]; Experiment 1, Rep 2): 0.0%
- Viable cells (Q1-LL) (A2780 cells [3]; Experiment 1, Rep 2): 0.2%
- Early apoptosis (Q1-LR) (A2780 cells [3]; Experiment 1, Rep 3): 0.2%
- Late apoptosis (Q1-UR) (A2780 cells [3]; Experiment 1, Rep 3): 99.5%
- Necrosis (Q1-UL) (A2780 cells [3]; Experiment 1, Rep 3): 0.0%
- Viable cells (Q1-LL) (A2780 cells [3]; Experiment 1, Rep 3): 0.3%
- Early apoptosis (Q1-LR) (A2780 cells [3]; Experiment 2, Average): 0.0%
- Late apoptosis (Q1-UR) (A2780 cells [3]; Experiment 2, Average): 99.9%
- Necrosis (Q1-UL) (A2780 cells [3]; Experiment 2, Average): 0.0%
- Viable cells (Q1-LL) (A2780 cells [3]; Experiment 2, Average): 0.1%
- Early apoptosis (Q1-LR) (A2780 cells [3]; Experiment 2, Rep 1): 0.0%
- Late apoptosis (Q1-UR) (A2780 cells [3]; Experiment 2, Rep 1): 99.9%
- Necrosis (Q1-UL) (A2780 cells [3]; Experiment 2, Rep 1): 0.0%
- Viable cells (Q1-LL) (A2780 cells [3]; Experiment 2, Rep 1): 0.1%
- Early apoptosis (Q1-LR) (A2780 cells [3]; Experiment 2, Rep 2): 0.0%
- Late apoptosis (Q1-UR) (A2780 cells [3]; Experiment 2, Rep 2): 99.9%
- Necrosis (Q1-UL) (A2780 cells [3]; Experiment 2, Rep 2): 0.0%
- Viable cells (Q1-LL) (A2780 cells [3]; Experiment 2, Rep 2): 0.0%
- Early apoptosis (Q1-LR) (A2780 cells [3]; Experiment 2, Rep 3): 0.0%
- Late apoptosis (Q1-UR) (A2780 cells [3]; Experiment 2, Rep 3): 99.9%
- Necrosis (Q1-UL) (A2780 cells [3]; Experiment 2, Rep 3): 0.0%
- Viable cells (Q1-LL) (A2780 cells [3]; Experiment 2, Rep 3): 0.1%

Reference: paper PMC9545474, “Anticancer Water‐Soluble Organoruthenium Complexes: Synthesis and Preclinical Evaluation” (Chembiochem, 2022)
